Results: PubChem BioAssay (NCI)
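Protocol summary: plate cells (96-well), add compound at 5 concentrations, incubate 48 h, interpolate endpoints linearly. Definition used: TGI = concentration required for complete inhibition of growth.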

Columns and labels:
Test in all cases: DTP human tumour cell line panel, 48 h
RPMI-8226 leukemia = test system: RPMI-8226 leukemia
HCC-2998 colon = test system: HCC-2998 colon
MALME-3M melanoma = test system: MALME-3M melanoma
HOP-92 NSCLC = test system: HOP-92 NSCLC
SK-MEL-2 melanoma = test system: SK-MEL-2 melanoma
UACC-62 melanoma = test system: UACC-62 melanoma
MDA-MB-435 = test system: MDA-MB-435
LOX IMVI melanoma = test system: LOX IMVI melanoma
UACC-257 melanoma = test system: UACC-257 melanoma
T-47D breast = test system: T-47D breast
SNB-75 CNS = test system: SNB-75 CNS
MDA-N = test system: MDA-N
NCI-H23 lung = test system: NCI-H23 lung
K-562 leukemia = test system: K-562 leukemia
HT29 colon = test system: HT29 colon
CCRF-CEM leukemia = test system: CCRF-CEM leukemia
PC-3 prostate = test system: PC-3 prostate
NCI/ADR-RES ovarian = test system: NCI/ADR-RES ovarian
OVCAR-8 ovarian = test system: OVCAR-8 ovarian
MCF7 breast = test system: MCF7 breast
SR leukemia = test system: SR leukemia
OVCAR-3 ovarian = test system: OVCAR-3 ovarian
BT-549 breast = test system: BT-549 breast
HOP-62 NSCLC = test system: HOP-62 NSCLC
DU-145 prostate = test system: DU-145 prostate
EKVX NSCLC = test system: EKVX NSCLC
TK-10 renal = test system: TK-10 renal
CAKI-1 renal = test system: CAKI-1 renal
SNB-19 CNS = test system: SNB-19 CNS
OVCAR-5 ovarian = test system: OVCAR-5 ovarian
HCT-15 colon = test system: HCT-15 colon
HS 578T breast = test system: HS 578T breast
SF-268 CNS = test system: SF-268 CNS
NCI-H226 lung = test system: NCI-H226 lung
SK-MEL-28 melanoma = test system: SK-MEL-28 melanoma
HCT-116 colon = test system: HCT-116 colon
SN12C renal = test system: SN12C renal
NCI-H522 lung = test system: NCI-H522 lung
SK-MEL-5 melanoma = test system: SK-MEL-5 melanoma
NCI-H460 lung = test system: NCI-H460 lung
U251 CNS = test system: U251 CNS
RXF 393 renal = test system: RXF 393 renal
A498 renal = test system: A498 renal
SW-620 colon = test system: SW-620 colon
A549 NSCLC = test system: A549 NSCLC
MOLT-4 leukemia = test system: MOLT-4 leukemia
MDA-MB-231 breast = test system: MDA-MB-231 breast
IGROV1 ovarian = test system: IGROV1 ovarian
SF-539 CNS = test system: SF-539 CNS
ACHN renal = test system: ACHN renal
COLO 205 colon = test system: COLO 205 colon
SF-295 CNS = test system: SF-295 CNS
786-0 renal = test system: 786-0 renal
OVCAR-4 ovarian = test system: OVCAR-4 ovarian
HL-60(TB) leukemia = test system: HL-60(TB) leukemia
M14 melanoma = test system: M14 melanoma
DMS 114 small cell lung = test system: DMS 114 small cell lung
LXFL 529 NSCLC = test system: LXFL 529 NSCLC
KM12 colon = test system: KM12 colon
M19-MEL melanoma = test system: M19-MEL melanoma
UO-31 renal = test system: UO-31 renal
KM20L2 colon = test system: KM20L2 colon
SNB-78 CNS = test system: SNB-78 CNS
SK-OV-3 ovarian = test system: SK-OV-3 ovarian
HOP-18 NSCLC = test system: HOP-18 NSCLC

CNc1cc2oc(=O)cc(C)c2cc1C
TGI (RPMI-8226 leukemia): > 100 µM
TGI (HCC-2998 colon): > 100 µM
TGI (MALME-3M melanoma): > 100 µM
TGI (HOP-92 NSCLC): > 100 µM
TGI (SK-MEL-2 melanoma): > 100 µM
TGI (UACC-62 melanoma): > 100 µM
TGI (MDA-MB-435): > 100 µM
TGI (LOX IMVI melanoma): > 100 µM
TGI (UACC-257 melanoma): > 100 µM
TGI (T-47D breast): > 100 µM
TGI (SNB-75 CNS): > 100 µM
TGI (MDA-N): > 100 µM
TGI (NCI-H23 lung): > 100 µM
TGI (K-562 leukemia): > 100 µM
TGI (HT29 colon): > 100 µM
TGI (CCRF-CEM leukemia): > 100 µM
TGI (PC-3 prostate): > 100 µM
TGI (NCI/ADR-RES ovarian): > 100 µM
TGI (OVCAR-8 ovarian): > 100 µM
TGI (MCF7 breast): > 100 µM
TGI (SR leukemia): > 100 µM
TGI (OVCAR-3 ovarian): > 100 µM
TGI (BT-549 breast): > 100 µM
TGI (HOP-62 NSCLC): > 100 µM
TGI (DU-145 prostate): > 100 µM
TGI (EKVX NSCLC): > 100 µM
TGI (TK-10 renal): > 100 µM
TGI (CAKI-1 renal): > 100 µM
TGI (SNB-19 CNS): > 100 µM
TGI (OVCAR-5 ovarian): > 100 µM
TGI (HCT-15 colon): > 100 µM
TGI (HS 578T breast): > 100 µM
TGI (SF-268 CNS): > 100 µM
TGI (NCI-H226 lung): > 100 µM
TGI (SK-MEL-28 melanoma): > 100 µM
TGI (HCT-116 colon): > 100 µM
TGI (SN12C renal): > 100 µM
TGI (NCI-H522 lung): > 100 µM
TGI (SK-MEL-5 melanoma): > 100 µM
TGI (NCI-H460 lung): > 100 µM
TGI (U251 CNS): > 100 µM
TGI (RXF 393 renal): > 100 µM
TGI (A498 renal): > 100 µM
TGI (SW-620 colon): > 100 µM
TGI (A549 NSCLC): > 100 µM
TGI (MOLT-4 leukemia): > 100 µM
TGI (MDA-MB-231 breast): > 100 µM
TGI (IGROV1 ovarian): > 100 µM
TGI (SF-539 CNS): > 100 µM
TGI (ACHN renal): > 100 µM
TGI (COLO 205 colon): > 100 µM
TGI (SF-295 CNS): > 100 µM
TGI (786-0 renal): > 100 µM
TGI (OVCAR-4 ovarian): > 100 µM
TGI (HL-60(TB) leukemia): > 100 µM
TGI (M14 melanoma): > 100 µM

CCc1c(O)c(O)c(C(C)=O)c2c(O)c(-c3c(C)cc4c(CC)c(O)c(O)c(C(C)=O)c4c3O)c(C)cc12
TGI (RPMI-8226 leukemia): 24.2 µM
TGI (MALME-3M melanoma): 31.5 µM
TGI (HOP-92 NSCLC): 10.4 µM
TGI (SK-MEL-2 melanoma): 23 µM
TGI (UACC-62 melanoma): 24.7 µM
TGI (UACC-257 melanoma): 24.3 µM
TGI (SNB-75 CNS): 30.7 µM
TGI (NCI-H23 lung): 16.1 µM
TGI (K-562 leukemia): 11.3 µM
TGI (HT29 colon): 17.1 µM
TGI (DMS 114 small cell lung): 18.4 µM
TGI (CCRF-CEM leukemia): 8.64 µM
TGI (LXFL 529 NSCLC): 16.5 µM
TGI (SR leukemia): > 100 µM
TGI (OVCAR-3 ovarian): 18 µM
TGI (KM12 colon): 11.7 µM
TGI (HOP-62 NSCLC): 27.4 µM
TGI (M19-MEL melanoma): 30.8 µM
TGI (OVCAR-5 ovarian): 32.9 µM
TGI (SF-268 CNS): 37.1 µM
TGI (SK-MEL-28 melanoma): 27.2 µM
TGI (HCT-116 colon): 14.3 µM
TGI (NCI-H522 lung): 14.8 µM
TGI (NCI-H460 lung): 38.5 µM
TGI (U251 CNS): 21.4 µM
TGI (UO-31 renal): 22.3 µM
TGI (KM20L2 colon): 17.6 µM
TGI (SF-539 CNS): 22.4 µM
TGI (ACHN renal): 28.8 µM
TGI (COLO 205 colon): 21.4 µM
TGI (SF-295 CNS): 11 µM
TGI (SNB-78 CNS): 12.1 µM
TGI (OVCAR-4 ovarian): 26.5 µM
TGI (HL-60(TB) leukemia): 14.9 µM
TGI (M14 melanoma): 21.6 µM

[N-]=[N+]=NC1(c2ccccc2)C(=O)c2cccc3c2N(CCC3)C1=O (stereo unspecified)
TGI (RPMI-8226 leukemia): > 100 µM
TGI (HOP-92 NSCLC): > 100 µM
TGI (SK-MEL-2 melanoma): > 100 µM
TGI (UACC-62 melanoma): > 100 µM
TGI (UACC-257 melanoma): 82.7 µM
TGI (SNB-75 CNS): > 100 µM
TGI (NCI-H23 lung): > 100 µM
TGI (K-562 leukemia): 89.4 µM
TGI (HT29 colon): > 100 µM
TGI (DMS 114 small cell lung): > 100 µM
TGI (LXFL 529 NSCLC): > 100 µM
TGI (SR leukemia): > 100 µM
TGI (OVCAR-3 ovarian): > 100 µM
TGI (KM12 colon): > 100 µM
TGI (HOP-62 NSCLC): > 100 µM
TGI (SNB-19 CNS): > 100 µM
TGI (M19-MEL melanoma): > 100 µM
TGI (OVCAR-5 ovarian): > 100 µM
TGI (SF-268 CNS): > 100 µM
TGI (SK-MEL-28 melanoma): > 100 µM
TGI (NCI-H522 lung): > 100 µM
TGI (NCI-H460 lung): > 100 µM
TGI (U251 CNS): > 100 µM
TGI (UO-31 renal): 74.3 µM
TGI (RXF 393 renal): > 100 µM
TGI (A498 renal): > 100 µM
TGI (MOLT-4 leukemia): > 100 µM
TGI (KM20L2 colon): > 100 µM
TGI (IGROV1 ovarian): > 100 µM
TGI (ACHN renal): > 100 µM
TGI (COLO 205 colon): > 100 µM
TGI (SK-OV-3 ovarian): > 100 µM
TGI (SF-295 CNS): > 100 µM
TGI (SNB-78 CNS): > 100 µM
TGI (786-0 renal): > 100 µM
TGI (OVCAR-4 ovarian): > 100 µM
TGI (HL-60(TB) leukemia): 64.5 µM
TGI (M14 melanoma): > 100 µM

Cc1ccc2c(c1)c1ccc3c(c1n2C)C(=O)C=CC3=O
TGI (RPMI-8226 leukemia): 4.2 µM
TGI (HCC-2998 colon): > 10 µM
TGI (MALME-3M melanoma): 3.8 µM
TGI (HOP-92 NSCLC): 3.92 µM
TGI (SK-MEL-2 melanoma): > 10 µM
TGI (UACC-62 melanoma): 9.48 µM
TGI (MDA-MB-435): 5.15 µM
TGI (LOX IMVI melanoma): > 10 µM
TGI (UACC-257 melanoma): 7.9 µM
TGI (T-47D breast): 5.08 µM
TGI (SNB-75 CNS): > 10 µM
TGI (MDA-N): 3.65 µM
TGI (NCI-H23 lung): 5.82 µM
TGI (K-562 leukemia): 2.31 µM
TGI (HT29 colon): > 10 µM
TGI (CCRF-CEM leukemia): 0.62 µM
TGI (PC-3 prostate): > 9.27 µM
TGI (NCI/ADR-RES ovarian): > 7.53 µM
TGI (OVCAR-8 ovarian): 6.01 µM
TGI (MCF7 breast): 4.99 µM
TGI (SR leukemia): 0.871 µM
TGI (OVCAR-3 ovarian): 4.53 µM
TGI (KM12 colon): > 10 µM
TGI (BT-549 breast): 2.83 µM
TGI (HOP-62 NSCLC): > 10 µM
TGI (DU-145 prostate): > 10 µM
TGI (EKVX NSCLC): > 7.07 µM
TGI (TK-10 renal): 3.76 µM
TGI (CAKI-1 renal): 4.17 µM
TGI (SNB-19 CNS): > 10 µM
TGI (OVCAR-5 ovarian): > 10 µM
TGI (HCT-15 colon): 3.92 µM
TGI (HS 578T breast): 8.66 µM
TGI (SF-268 CNS): > 10 µM
TGI (NCI-H226 lung): > 10 µM
TGI (SK-MEL-28 melanoma): 4.76 µM
TGI (HCT-116 colon): 2.92 µM
TGI (SN12C renal): > 7.51 µM
TGI (NCI-H522 lung): 2.68 µM
TGI (SK-MEL-5 melanoma): > 10 µM
TGI (NCI-H460 lung): > 10 µM
TGI (U251 CNS): > 10 µM
TGI (UO-31 renal): 3.17 µM
TGI (RXF 393 renal): 3.46 µM
TGI (A498 renal): > 8.82 µM
TGI (SW-620 colon): 2.37 µM
TGI (A549 NSCLC): > 10 µM
TGI (MOLT-4 leukemia): 2.19 µM
TGI (MDA-MB-231 breast): 6.01 µM
TGI (IGROV1 ovarian): > 10 µM
TGI (SF-539 CNS): 4.93 µM
TGI (ACHN renal): 3.02 µM
TGI (COLO 205 colon): 3.16 µM
TGI (SK-OV-3 ovarian): > 10 µM
TGI (SF-295 CNS): > 10 µM
TGI (786-0 renal): 3.44 µM
TGI (OVCAR-4 ovarian): > 5.56 µM
TGI (HL-60(TB) leukemia): 1.69 µM
TGI (M14 melanoma): 4.54 µM

CCCC(=O)OC[n+]1ccc2c(C)c3[nH]c4ccccc4c3c(C)c2c1
TGI (SNB-75 CNS): > 100 µM
TGI (K-562 leukemia): > 100 µM
TGI (HT29 colon): > 100 µM
TGI (CCRF-CEM leukemia): > 100 µM
TGI (SR leukemia): 17.5 µM
TGI (KM12 colon): 1.8 µM
TGI (TK-10 renal): 5.5 µM
TGI (M19-MEL melanoma): > 100 µM
TGI (OVCAR-5 ovarian): 2.34 µM
TGI (UO-31 renal): 5.59 µM
TGI (MOLT-4 leukemia): 3.04 µM
TGI (HOP-18 NSCLC): 2.99 µM
TGI (HL-60(TB) leukemia): > 100 µM
